Results from US7592335B2, “Oxazolidinone derivatives as antimicrobials” (Ranbaxy Laboratories Limited, priority 2005, dated 2009).
In brackets after ≈: the same amount, converted by molar mass.

Columns and labels:
[1] = test system: Streptococcus pyogenes ATCC 19615; assay: in vitro antibacterial activity, agar dilution MIC (MHA and 5% sheep blood); assay type: cell-based; conditions: 18-24 hours
Procedure: (§1) The compounds of the invention display antibacterial activity when tested by the agar incorporation method. The following minimum inhibitory concentrations (μg/mL) were obtained for representative compound of the invention, which is given below in the following table.
(§2) Inoculum preparation for Streptococcus pneumoniae, Moraxella catarrhalis, Streptococcus pyogenes strains and the method of MIC is an agar dilution method with MHA (Mueller Hinton agar) and 5% sheep blood. Inoculum was prepared by direct colony suspension in normal saline solution and adjusting the turbidity to 1 Mcfarland and subsequently diluting as per NCCLS guidelines in order to obtain 10^4 CFU/ml. The plates were incubated in CO2 at 37° C. for 18-24 hours.
(§3) The concentration showing no growth of the inoculated culture was recorded as the MIC. Appropriate ATCC standard strains were simultaneously tested and result recorded only when the MIC's against standard antibiotics were within the acceptable range.

[2] = test system: Moraxella catarrhalis ATCC 8176; assay: as above; assay type: cell-based; conditions: 18-24 hours
Procedure: as §1, §2, §3

[3] = test system: Haemophilus influenzae 49247; assay: Haemophilus MIC, microbroth dilution method; assay type: cell-based; conditions: H. influ. 49247, Mueller Hinton Broth cation adjusted + yeast extract + supplements
Procedure: as §1
The in vitro activity for Haemophilus MICs were performed by using Microbroth dilution method as follows: Media used: Mueller Hinton Broth (MHB-Difco)−Cation adjusted+5 grams per liter Yeast extract+supplements
Preparation of drug concentrations in 96 well microtitre plates were done as per the NCCLS method. Inoculum was prepared by direct colony suspensions in normal saline and adjusted to 1 McFarland turbidity and subsequently diluted in broth 100 times as per NCCLS guidelines in order to obtain 10^5 […].
as §3

[4] = test system: Streptococcus pneumonia ATCC6303; assay: in vitro antibacterial activity, agar dilution MIC (MHA and 5% sheep blood); assay type: cell-based, Streptococcus pneumoniae; conditions: 18-24 hours
Procedure: as §1, §2, §3

[5] = test system: Streptococcus pneumonia ATCC AB34; assay: as above; assay type: cell-based, Streptococcus pneumoniae; conditions: 18-24 hours
Procedure: as §1, §2, §3

[6] = test system: Methicilline Resistant Staphylococcus aureus ATCC33; assay: in vitro antibacterial activity, agar dilution MIC; assay type: cell-based; conditions: 24 hours, 35±2° C.
Procedure: as §1
(§4) Briefly, the compounds were dissolved in dimethylsulphoxide and doubling dilution of the compounds was incorporated into Muller Hilton agar before solidification. Inoculum for staphylococcus aureus and Enterococus strain was prepared by direct colony suspension in normal saline solution and adjusting the turbidity to 0.5 Macfarland turbidity and subsequently diluting as per NCCLS guidelines in order to obtain 10^4 CFU/spot. CFU/mL of few randomly selected cultures was performed. The cultures were replicated on agar plate using Denley's multipoint replicator. The agar plates were incubated for 18 hours-24 hours (24 hours for MRSA studies) at 35±2° C. Q.C. strains were also included in each run of the study.
as §3

[7] = test system: Vancomycin-resistant enterococci ATCC 6A; assay: in vitro antibacterial activity, agar dilution MIC; assay type: cell-based; conditions: VRE ATCC 6A, 18-24 hours, 35±2° C.
Procedure: as §1, §4, §3

[8] = test system: Staphylococcus aureus ATCC 15187; assay: in vitro antibacterial activity, agar dilution MIC; assay type: cell-based; conditions: 35±2° C.
Procedure: as §1, §4, §3

[9] = test system: Enterococcus faecalis ATCC 29212; assay: in vitro antibacterial activity, agar dilution MIC; assay type: cell-based; conditions: 35±2° C.
Procedure: as §1, §4, §3

[10] = test system: Methicilline Resistant Staphylococcus aureus ATCC562; assay: in vitro antibacterial activity, agar dilution MIC; assay type: cell-based; conditions: 24 hours, 35±2° C.
Procedure: as §1, §4, §3

[11] = test system: Staphylococcus aureus ATCC 25923; assay: in vitro antibacterial activity, agar dilution MIC; assay type: cell-based; conditions: 35±2° C.
Procedure: as §1, §4, §3

CC(=O)NCC1CN(c2ccc(N3CC4NCCOC4C3)c(F)c2)C(=O)O1 (stereo not shown) [Compound No. 05, N-[(3-{3-fluoro-4-[(7aE)-hexahydropyrrolo[3,4-b][1,4]oxazin-6(2H)-yl]phenyl}-2-oxo-1,3-oxazolidin-5-yl)methyl]acetamide]
minimum inhibitory concentration, S. pyogenes 19615 ([1]; Strep. pyog. ATCC 19615, CO2, 37° C.): 2 µg/mL (≈ 5.29 µM) | minimum inhibitory concentration, M. catt 8176 ([2]; M. catt. ATCC 8176, CO2, 37° C.): >16 µg/mL | minimum inhibitory concentration, H. inf 49247 [3]: 8 µg/mL | minimum inhibitory concentration, S. pneum 6303 ([4]; CO2, 37° C.): 2 µg/mL (≈ 5.29 µM) | minimum inhibitory concentration, S. pneum AB34 ([5]; CO2, 37° C.): 2 µg/mL (≈ 5.29 µM) | minimum inhibitory concentration, MRSA 33 [6]: 4 µg/mL (≈ 10.6 µM) | minimum inhibitory concentration, VRE 6A [7]: 2 µg/mL (≈ 5.29 µM) | minimum inhibitory concentration, S. aureus 15187 ([8]; S. aureus ATCC 15187, 18-24 hours): 8 µg/mL (≈ 21.1 µM) | minimum inhibitory concentration, E. faecalis 29212 ([9]; Ent. faecalis ATCC 29212, 18-24 hours): 2 µg/mL (≈ 5.29 µM) | minimum inhibitory concentration, MRSA 562 [10]: 4 µg/mL (≈ 10.6 µM) | minimum inhibitory concentration, S. aureus 25923 ([11]; S. aureus ATCC 25923, 18-24 hours): 8 µg/mL (≈ 21.1 µM)

CC(=O)NC[C@H]1CN(c2ccc(N3CCOCC3)c(F)c2)C(=O)O1 [Linezolid]
MIC ([1]; Streptococcus pyogenes, ATCC19615, Strep. pyog. ATCC 19615, CO2, 37° C., read-out: minimum inhibitory concentration, S. pyogenes 19615): 2 µg/mL (≈ 5.93 µM) | MIC ([2]; Moraxella catarrhalis, ATCC8176, M. catt. ATCC 8176, CO2, 37° C., read-out: minimum inhibitory concentration, M. catt 8176): 2 µg/mL (≈ 5.93 µM) | MIC ([3]; Haemophilus influenzae, read-out: minimum inhibitory concentration, H. inf 49247): 8 µg/mL | MIC ([4]; Streptococcus pneumoniae, S. pneum ATCC6303, CO2, 37° C., read-out: minimum inhibitory concentration, S. pneum 6303): 1 µg/mL (≈ 2.96 µM) | MIC ([5]; Streptococcus pneumoniae, ATCCAB34, S. pneum ATCC AB34, CO2, 37° C., read-out: minimum inhibitory concentration, S. pneum AB34): 2 µg/mL (≈ 5.93 µM) | MIC ([6]; Staphylococcus aureus, ATCC 33 / MRSA, read-out: minimum inhibitory concentration, MRSA 33): 2 µg/mL (≈ 5.93 µM) | MIC ([7]; Enterococcus, read-out: minimum inhibitory concentration, VRE 6A): 2 µg/mL (≈ 5.93 µM) | MIC ([8]; Staphylococcus aureus, ATCC15187, S. aureus ATCC 15187, 18-24 hours, read-out: minimum inhibitory concentration, S. aureus 15187): 2 µg/mL (≈ 5.93 µM) | MIC ([9]; Enterococcus faecalis, ATCC29212, Ent. faecalis ATCC 29212, 18-24 hours, read-out: minimum inhibitory concentration, E. faecalis 29212): 2 µg/mL (≈ 5.93 µM) | MIC ([10]; Staphylococcus aureus, ATCC 562 / MRSA, read-out: minimum inhibitory concentration, MRSA 562): 2 µg/mL (≈ 5.93 µM) | MIC ([11]; Staphylococcus aureus, ATCC25923, S. aureus ATCC 25923, 18-24 hours, read-out: minimum inhibitory concentration, S. aureus 25923): 2 µg/mL (≈ 5.93 µM)
